Measurements from doi:10.1101/2024.08.19.608619, “Discovery of potent SARS-CoV-2 nsp3 macrodomain inhibitors uncovers lack of translation to cellular antiviral response” (bioRxiv, 2024).
Values after ≈ are worked out from the molar mass of the structure shown.

What was measured:
[1] = LogD; settings: pH 7.4; In vitro LogD
[2] = Hepatic microsomal stability, MLM; assay type: in vitro ADME
[3] = Permeability Papp (AB) MDR1/MDCKII; settings: In vitro MDR1-MDCKII permeability; for papp_a_to_b_mean: A to B; for perc_recovery_a_to_b_mean: recovery A to B
[4] = In vitro kinetic solubility; settings: In vitro kinetic solubility, ph 7.4
[5] = Hepatic microsomal stability, HLM; assay type: in vitro ADME, human; settings: In vitro human liver microsomal stability; for perc_remaining_no_cofactor: no cofactor
[6] = In vitro mouse liver microsomal stability
[7] = In vitro mouse liver microsomal stability, no cofactor

| Structure (SMILES) | logd [1] | clint [2, 6] | perc_remaining [2, 6] | t_half [2, 6] | perc_remaining_no_cofactor ([2]; In vitro mouse liver microsomal stability; no cofactor) | papp_a_to_b_mean ([3]; mean) | perc_recovery_a_to_b_mean ([3]; mean) | solubility_mean [4] | clint [5] | perc_remaining [5] | t_half [5] | perc_remaining_no_cofactor [5] | perc_remaining_no_cofactor [2, 7] | papp_a_to_b_mean ([3]; no inhibitor) | perc_recovery_a_to_b_mean ([3]; no inhibitor) |
| --- | --- | --- | --- | --- | --- | --- | --- | --- | --- | --- | --- | --- | --- | --- | --- |
| CCNC(=O)c1cc2c(N[C@H](c3ccc4c(c3)S(=O)(=O)CCC4)C(C)C)ncnc2[nH]1 (racemic) [ASAP-0008711] | 2.8 | 85.0 µL/min/mg | 21.0% | 19.5 min | 95.0% | 0.7 ×10⁻⁶ cm/s | 87.2% | 336 µM (≈ 148 µg/mL) | 108.0 µL/min/mg | 15.0% | 15.4 min | 98.0% | – | – | – |
| CC(C)[C@H](Nc1ncnc(N)c1Cl)c1ccc2c(c1)S(=O)(=O)CCC2 (racemic) [ASAP-0010739] | 2.4 | 204.0 µL/min/mg | 4.0% | 8.2 min | – | 10.1 ×10⁻⁶ cm/s | 58.5% | ≥ 400 µM | 79.0 µL/min/mg | 27.0% | 21.0 min | 101.0% | 102.0% | – | – |
| CC(C)[C@H](Nc1ncnc2[nH]c(-c3cnn(CC(N)=O)c3)cc12)c1ccc2c(c1)OCCO2 (single isomer, unassigned) [ASAP-0008450] | 2.9 | 42.0 µL/min/mg | 49.0% | 40.0 min | – | 1.87 ×10⁻⁶ cm/s | 90.9% | 332 µM (≈ 149 µg/mL) | 238.0 µL/min/mg | 2.0% | 7.0 min | 90.0% | 98.0% | – | – |
| CC(C)(C)[C@H](Nc1ncnc2[nH]c(-c3cnn(CC(N)=O)c3)cc12)c1ccc2c(n1)OCCO2 (single isomer, unassigned) [ASAP-0011159] | 2.7 | 10.0 µL/min/mg | 88.0% | 162.3 min | – | – | – | 372 µM (≈ 172 µg/mL) | 27.0 µL/min/mg | 64.0% | 60.8 min | 95.0% | 116.0% | 1.02 ×10⁻⁶ cm/s | 95.8% |
| CC(C)[C@H](Nc1ncnc2[nH]cc(C(=O)NC3CC3)c12)c1ccc2c(c1)S(=O)(=O)CCC2 (single isomer, unassigned) [ASAP-0011247] | 3.0 | 42.0 µL/min/mg | 50.0% | 39.5 min | – | – | – | 19 µM (≈ 8.62 µg/mL) | 5.0 µL/min/mg | 90.0% | 320.1 min | 112.0% | 102.0% | 1.27 ×10⁻⁶ cm/s | 71.5% |
| CC(C)(C)[C@H](Nc1ncnc2[nH]c(-c3cnn(CC(N)=O)c3)cc12)c1ccc2c(c1)OCCO2 (single isomer, unassigned) [ASAP-0012332] | 3.1 | 39.0 µL/min/mg | 54.0% | 43.1 min | – | – | – | 104 µM (≈ 48 µg/mL) | 100.0 µL/min/mg | 18.0% | 16.8 min | 109.0% | 106.0% | 1.01 ×10⁻⁶ cm/s | 76.5% |
| CNC(=O)c1cc2c(N[C@H](c3ccc4c(c3)S(=O)(=O)CCC4)C(C)C)ncnc2[nH]1 (single isomer, unassigned) [ASAP-0012340] | 2.3 | 47.0 µL/min/mg | 42.0% | 35.3 min | – | – | – | 374 µM (≈ 160 µg/mL) | 67.0 µL/min/mg | 33.0% | 25.0 min | 107.0% | 106.0% | 0.891 ×10⁻⁶ cm/s | 74.2% |
